Reference: patent US20210260096A1, “PHARMACEUTICAL COMPOSITION FOR TREATING WOUND OR ACTIVATING SKIN, CONTAINING BETA-GLUCAN, GLYCITIN, AND 4',6,7-TRIMETHOXYISOFLAVONE” (Quegen Biotech Co., Ltd., priority 2018, published 2021)

Tests used:
[1] = system: human dermal fibroblasts (HDFs); assay: Differentiation of fibroblasts under β-glucan single treatment; assay type: cell-based; details: β-glucan 0 to 10%; FIG. 1
Protocol: (§1) The differentiation, migration and invasion of epithelial cells, such as human keratinocytes, and the differentiation of fibroblasts according to the single treatment of β-glucan were examined. β-glucan was produced by QUEGEN BIOTECH Co., LTD and used. Human dermal fibroblasts and human keratinocytes were purchased from Korean Cell Line Bank and used. The human dermal fibroblasts (HDFs) or the human keratinocytes (HaCaTs) were seeded in a 6-well plate containing […] of 10% FBS-containing DMEM at 1×10^4 cells/well (HDF) and 5×10^4 cells/well (HaCaT), and cultured under conditions of 37° C. and 5% CO2. During culture, the concentration of the epithelial cells (HaCaTs) and the fibroblasts were treated with 200 μL of β-glucan to have a concentration of 0 to 10% in a concentration dependent manner.

[2] = system: HaCaTs and HDFs; assay: Proliferation and migration in Transwell HaCaT/HDF co-culture by composition of mixed solution; assay type: cell-based, human; details: with respect to control PBS, 24 hours
Protocol: 5×10^4 cells/well of HaCaTs were seeded in the upper part and 1×10^4 cells/well of HDFs were seeded in the lower part of a Transwell invasion kit, […] of 10% FBS-containing DMEM and the three kinds of test solutions were treated and incubated under conditions of 37° C. and 5% CO2 for 24 hours, followed by determining an optimal concentration condition.

[3] = system: human keratinocytes (HaCaTs); assay: Differentiation, migration and invasion of epithelial cells under β-glucan single treatment; assay type: cell-based; details: 0.5% β-glucan among 0 to 10%; FIG. 1
Protocol: as §1

With β-glucan the “differentiation of the fibroblasts” value [1] was “no significant change”, the “Migration (%)” value ([2]; 0.1%) was 110% and the “Proliferation (%)” value ([2]; 0.1%) was 105%. The “Migration (%)” value ([2]; 0.25%) was 130%, the “Proliferation (%)” value ([2]; 0.25%) was 111% and the “Migration (%)” value ([2]; 0.5%) was 151%. For the same substance, the “Proliferation (%)” value ([2]; 0.5%) was 120%, the “Migration (%)” value ([2]; 0.7%) was 153% and the “Proliferation (%)” value ([2]; 0.7%) was 125%. The “Migration (%)” value ([2]; 1.0%) was 161%, the “Proliferation (%)” value ([2]; 1.0%) was 122% and the “Migration (%)” value ([2]; 1.5%) was 110%. For the same substance, the “Proliferation (%)” value ([2]; 1.5%) was 118% and the “differentiation, migration and invasion of epithelial cells by concentration” value [3] was “optimal results”.
